Source: US11738065B2, “Polypeptides and analogues thereof for use in the treatment of diabetes and bone disorders” (UNIVERSITY OF ULSTER, priority 2015, dated 2023)
Marks after values point to notes of the source that are not given here.

What was measured:
high fat fed mice [1] = test: Pancreatic insulin content and islet histology after 21 days treatment; format: in vivo
Description: On day 21, a non-fasted 24 h glucose profile was conducted. […] HOMA-IR was determined using the equation HOMA-IR=fasting glucose (mmol/l)×fasting insulin (mU/l)/22.5. […] Terminal analysis included measurement of total body fat and lean mass by DEXA scanning (Piximus Densitometer, Inside Outside Sales, Madison Wis., USA) and extraction of pancreatic tissue for analysis as detailed below. […] Briefly, pancreatic tissues were fixed in 4% parafolmaldehyde at 4° C. for 48 h. Pancreata were then embedded in paraffin wax and processed using an automated tissue processor (Leica TP1020, Leica Microsystems, Nussloch, Germany). Immunohistochemistry was performed as described by Vasu et al., 2014 (PLoS One. 2014 Jun. 26; 9(6):e101005). […] Abcam, ab6995) or guinea-pig anti-glucagon antibody (PCA2/4, 1:400; raised in-house). […] The slides were viewed under a FITC (488 nm) or TRITC filter (594 nm) using a fluorescent microscope (Olympus system microscope, model BX51) and photographed using a DP70 camera adapter system. Islet parameters were analysed using Cell^F image analysis software (Olympus Soft Imaging Solutions, GmbH). Blood samples were collected from the cut tip on the tail vein of conscious mice into chilled fluoride/heparin glucose micro-centrifuge tubes (Sarstedt, Numbrecht, Germany) at the time points indicated in the Drawings. Blood glucose was measured directly using a hand-held Ascencia Contour blood glucose meter (Bayer Healthcare, Newbury, Berkshire, UK).

high fat fed mice [2] = test: Metabolic response to GIP after 21 days treatment; format: in vivo
Description: Twice daily (09:30 and 17:30 h) i.p. injections of saline vehicle (0.9% w/v NaCl), polypeptides (at 25 nmol/kg bw) were administered for 21 days in high fat mice. Energy intake and body weight were monitored daily, and non-fasting blood glucose and plasma insulin concentrations were assessed at 3 day intervals. On day 21, a non-fasted 24 h glucose profile was conducted. At the end of the treatment period, i.p. glucose tolerance (18 mmol/kg bw), biological response to GIP (18 mmol/kg glucose in combination with native GIP (25 nmol/kg); i.p.) and insulin sensitivity (15 U/kg bw; i.p.) tests were performed. HOMA-IR was determined using the equation HOMA-IR=fasting glucose (mmol/l)×fasting insulin (mU/l)/22.5. All test solutions were administered in a final volume of 5 ml/kg body weight, at 10:00 h without previous 09:30 h peptide injection. Terminal analysis included measurement of total body fat and lean mass by DEXA scanning (Piximus Densitometer, Inside Outside Sales, Madison Wis., USA) and extraction of pancreatic tissue for analysis as detailed below. Immunohistochemistry Pancreatic tissue was excised, divided longitudinally and either immediately snap frozen for subsequent extraction of insulin using acid ethanol extraction (5 ml/g) as described by Irwin et al., 2015 (Diabetes. 2015 August; 64(8):2996-3009), or processed for immunohistochemical examination. Briefly, pancreatic tissues were fixed in 4% parafolmaldehyde at 4° C. for 48 h. Pancreata were then embedded in paraffin wax and processed using an automated tissue processor (Leica TP1020, Leica Microsystems, Nussloch, Germany). Immunohistochemistry was performed as described by Vasu et al., 2014 (PLoS One. 2014 Jun. 26; 9(6):e101005). Succinctly, tissue sections were deparaffinised, rehydrated and probed with primary antibodies: mouse anti-insulin antibody (1:500; Abcam, ab6995) or guinea-pig anti-glucagon antibody (PCA2/4, 1:400; raised in-house). The sections were then incubated with secondary antibody, Alexa Fluor 488 goat anti-guinea pig IgG (1:400) or Alexa Fluor 594 goat anti-mouse IgG (1:400); respectively. The slides were viewed under a FITC (488 nm) or TRITC filter (594 nm) using a fluorescent microscope (Olympus system microscope, model BX51) and photographed using a DP70 camera adapter system. Islet parameters were analysed using Cell^F image analysis software (Olympus Soft Imaging Solutions, GmbH).
Tests were conducted after twice daily treatment with saline vehicle (0.9% (w/v) NaCl), (DAla^2)GIP and (DAla^2)GIP/xenin-8-Gln (each at 25 nmol/kg bw) for 21 days. For glucose tolerance test, blood glucose and plasma insulin concentrations were measured before and 15, 30, 60 and 105 min after i.p injection of glucose (18 mmol/kg bw). For metabolic response to GIP, blood glucose and plasma insulin concentrations were measured before and 15, 30, 60 and 105 min after i.p injection of glucose (18 mmol/kg bw) in combination with GIP (25 nmol/kg bw). All studies were conducted in 18 h fasted mice. AUC values (0-105 min) for blood glucose and plasma insulin are shown. Values represent means±SEM for 6-8 mice. *P<0.05, **P<0.01, […] compared to high fat controls. ^ΔP<0.05, ^ΔΔP<0.01, ^ΔΔΔP<0.001 compared to lean controls.

[3] = 0-105 min, glucose 18 mmol/kg + GIP 25 nmol/kg i.p., 18 h fasted, after 21 days treatment, mean ± SEM

## CC[C@H](C)[C@H](NC(=O)[C@H](CO)NC(=O)[C@H](Cc1ccc(O)cc1)NC(=O)[C@H](CC(=O)O)NC(=O)[C@H](CO)NC(=O)[C@@H](NC(=O)[C@H](Cc1ccccc1)NC(=O)[C@@H](NC(=O)CNC(=O)[C@H](CCC(=O)O)NC(=O)[C@@H](C)NC(=O)[C@@H](N)Cc1ccc(O)cc1)[C@@H](C)O)[C@@H](C)CC)C(=O)N[C@@H](C)C(=O)N[C@@H](CCSC)C(=O)N[C@@H](CC(=O)O)C(=O)N[C@@H](CCCCN)C(=O)N[C@H](C(=O)N[C@@H](Cc1c[nH]cn1)C(=O)N[C@@H](CCC(N)=O)C(=O)N[C@@H](CCC(N)=O)C(=O)N[C@@H](CC(=O)O)C(=O)N[C@@H](Cc1ccccc1)C(=O)N[C@H](C(=O)N[C@@H](CC(N)=O)C(=O)N[C@@H](Cc1c[nH]c2ccccc12)C(=O)N[C@@H](CC(C)C)C(=O)N[C@@H](CC(C)C)C(=O)N[C@@H](C)C(=O)N[C@@H](CCC(N)=O)C(=O)N[C@@H](CCCCN)C(=O)NCC(=O)N[C@@H](CCCCN)C(=O)N[C@@H](CCCCN)C(=O)N[C@@H](CC(N)=O)C(=O)N[C@@H](CC(=O)O)C(=O)N[C@@H](Cc1c[nH]c2ccccc12)C(=O)N[C@@H](CCCCN)C(=O)N[C@@H](Cc1c[nH]cn1)C(=O)N[C@@H](CC(N)=O)C(=O)N[C@H](C(=O)N[C@H](C(=O)N[C@@H](CCC(N)=O)C(=O)O)[C@@H](C)O)[C@@H](C)CC)C(C)C)[C@@H](C)CC [(DAla2)GIP, TYR-(d)ALA-GLU-GLY-THR-PHE-ILE-SER-ASP-TYR-SER-ILE-ALA-MET-ASP-LYS-ILE-HIS-GLN-GLN-ASP-PHE-VAL-ASN-TRP-LEU-LEU-ALA-GLN-LYS-GLY-LYS-LYS-ASN-ASP-TRP-LYS-HIS-ASN-ILE-THR-GLN]
High fat fed mice [1]; 21 days twice daily 25 nmol/kg
  Pancreatic islet area and beta cell area: no significant effect
High fat fed mice [1]; 21 days twice daily 25 nmol/kg, vs high fat controls
  Pancreatic alpha cell area: decreased (P<0.001)
High fat fed mice [1]; 21 days, vs all other groups of mice
  Number of islets per mm2: significantly (P<0.05 to P<0.01) augmented
High fat fed mice [2]; [3]
  Metabolic response to GIP Blood glucose AUC: 1029.5 ± 138.0* mmol/l · min
  Metabolic response to GIP Plasma insulin AUC: 142.3 ± 19.2**^,ΔΔΔ ng/ml · min
High fat fed mice [2]; 21 days treatment
  Glucose lowering and insulin releasing actions of native GIP: significantly (P<0.05) improved
High fat fed mice [2]; 21 days treatment, P<0.05
  Decrease of overall blood glucose AUC in response to GIP vs saline treated control mice: 36%
High fat fed mice [2]; 21 days treatment, vs high fat controls
  GIP-induced elevations of plasma insulin (AUC): significantly (P<0.05 to P<0.01) augmented
